Here are results for one compound from ChEMBL document CHEMBL2412988, “Synthesis, pH-dependent, and plasma stability of meropenem prodrugs for potential use against drug-resistant tuberculosis” (Bioorg Med Chem, 2013).

The assay relates to Mycobacterium tuberculosis. As to the kind of experiment: Antimycobacterial activity against extensively drug-resistant Mycobacterium tuberculosis in presence of clavulanate. The class given is functional.

As to `C[C@@H](O)[C@H]1C(=O)N2C(C(=O)O)=C(S[C@@H]3CN[C@H](C(=O)N(C)C)C3)[C@H](C)[C@H]12` [MEROPENEM], the MIC (usually the lowest concentration that inhibits growth of the organism) came to 0.03 µg/mL.
